Assay results reported in patent publication US5728684A, “Determination of prodrugs metabolizable by the liver and therapeutic use thereof” (priority 1994, dated 1998).
“Also recorded” adds a separate entry of the source.

Columns and labels:
IPdR oxidase [1] = assay: Conversion of IPdR to IUdR by cell extracts (human liver); format: in vitro ADME; details: 3 samples
Procedure: (§1) Rat hepatic tissue was washed with ice-cold 1.15% KCl and blotted dry. The tissue was then homogenized with a tissue homogenizer, in a volume of 1.15% KCl that was 3 times the tissue weight, to form a 25% (w/v) homogenate. The homogenate was then centrifuged at 10,000 g for 10 minutes at 4° C. The resulting supernatant was filtered through Miracloth (similar to cheese cloth) then dialyzed overnight against 50 mM Tris-HCl buffer pH 7.5 and stored at -80° C. before use. Rat hepatocytes were obtained by a perfusion technique then the cells were extracted with 10 mM phosphate buffer, pH 7.5, containing 1M KCl and dialyzed for 4 hours against 50 mM Tris-HCl buffer pH 7.5.
For the standard assay condition, the reaction mixture contained 50 mM Tris-HCl, pH 7.5, 1 mM EDTA, 180 μM of IPdR (or its analogs) and approximately 0.01 mg protein of 10,000 g supernatant of tissue homogenate in a final volume of 500 μl and the incubation was at 37° C. for 10 minutes unless specified otherwise. 300 μl of reaction mixture was removed at the end of incubation and mixed with 630 μl acetonitrile then agitated. […] The samples were reconstituted to the original aliquot volume with the HPLC mobile phase buffer and analyzed on a Alltech RP-18 column. IPdR, IUdR and IU were detected at a UV absorption wavelength of 230 nm, and IPdR was also detected at a UV absorption wavelength of 335 nm. […]

IPdR oxidase [2] = assay: IUdR synthesis by partially purified IPdR oxidase; format: biochemical; details: 37° C., rat liver enzyme purified 380 fold
Procedure: Differential fractionation centrifugation was used in an attempt to localize this IPdR conversion enzyme activity in the liver homogenate. The enzyme activity assay was performed on each fraction. […] Further purification was achieved by use of DEAE cellulose column chromatography, blue Sepharose column chromatography and glycerol gradient centrifugation in this order. This IPdR oxidase activity was purified 380 fold starting from the crude extracts of rat liver. The partially purified enzyme catalyzed IUdR synthesis at a rate of 3.8 μmoles per minute per milligram of protein at 37° C. under these conditions. The apparent molecular weight of this enzyme in both rats and humans as determined by centrifugation on a 20 to 40% glycerol gradient is approximately 280,000 dalton. Neither cofactor nor divalent cations requirement has been found for the rat liver enzyme or the human liver enzyme.

[3] = Michaelis constant / Vmax of 2-pyrimidinone deoxyribose analogs with the liver enzyme; format: biochemical, rat; details: rat, liver aldehyde oxidase
Procedure: as §1
(§2) For the standard assay condition, the reaction mixture contained 50 mM Tris-HCl, pH 7.5, 1 mM EDTA, 180 μM of IPdR (or its analogs) and approximately 0.01 mg protein of 10,000 g supernatant of tissue homogenate in a final volume of 500 μl and the incubation was at 37° C. for 10 minutes unless specified otherwise. 300 μl of reaction mixture was removed at the end of incubation and mixed with 630 μl acetonitrile then agitated. The precipitated protein were removed by centrifugation and the supernatant was lyophilized to dryness. The samples were reconstituted to the original aliquot volume with the HPLC mobile phase buffer and analyzed on a Alltech RP-18 column. IPdR, IUdR and IU were detected at a UV absorption wavelength of 230 nm, and IPdR was also detected at a UV absorption wavelength of 335 nm. The mobile phase was 10% acetonitrile/90%mM ammonium acetate, pH 6.8 and the flow rate was 1 ml/minute. Standard curves of IPdR and IUdR were established from the integration value of known concentrations.
(§3) Several 2-pyrimidinone deoxyribose analogs were examined for the conversion to their deoxyuridine counterparts. […] Nevertheless the relative Vmax for IPdR in the reaction at pH 7.5 and pH 9.5 is the same. […] The synthetic substrates for aldehyde oxidase appear to be better than its natural substrates, N^1 -methylnicotinamide and acetaldehyde, as judged by the potency of inhibition of N^1 -methylnicotinamide and acetaldehyde to the IPdR oxidation reaction (Table IV). The rate of reactivity of the liver enzyme with different IPdR analogs follows the order EPdR, IP, IPdR, 5-bromo-2-pyrimidinone deoxyribose (BPdR) and 5-methyl-2-pyrimidinone deoxyribose (MPdR) or 5-ethyl-2-pyrimidinone deoxyribose (EtPdR) (Table V). Electronegative substituents in the 5-position seemed to increase the substrate activity in this oxidation reaction.

aldehyde oxidase = assay: as above; format: biochemical, rat; details: pH 7.5 versus pH 9.5
Procedure: as §1, §2, §3

Xanthine oxidase = assay: Conversion of IPdR to IUdR by xanthine oxidase; format: biochemical; details: isolated from cow milk
Description: (§4) In order to determine which enzyme is responsible for the catalysts of this IPdR oxidation, a series of known oxido-reductases which have similar capability to oxidize a carbon atom with an adjacent amino group into a carbonyl functionality were explored for their ability to catalyze IPdR oxidation. […] A mixed function oxidase system prepared from the microsome of rat liver a broad spectrum of substrates and is NADPH dependent. […] Alcohol dehydrogenase (which can be obtained from Sigma) and alcohol oxidase (which can be obtained from Sigma) both reside in the soluble fraction of liver cell extracts, but the conversion of IPdR to […] was not detected with purified preparation of either enzyme under the same conditions that they converted their natural substrates effectively. […]

Alcohol dehydrogenase = assay: IPdR conversion by alcohol dehydrogenase; format: biochemical; details: purified preparation
Description: as §4

Sarcosine oxidase = assay: IPdR oxidation by sarcosine oxidase; format: biochemical
Description: as §4

liver and tumor tissue = assay: Thymidine replacement in liver and tumor tissue of athymic nude mice having metastatic tumors; format: in vivo; details: 100, 250, 500 mg/kg/d (FIG. 7)
Procedure: Mice were administered daily dosages of 0, 100, 250 and 500 mg/kg/d to determine thymidine replacement in liver and tumor tissue. The results presented in FIG. 7 are presented as mean percent thymidine replacement ± one standard error of the mean. n≥3 (control tumors n=2).

HSV-1 = details: Lewandowski et al. 1989; cited from earlier work
HSV-2 [4] = details: Lewandowski et al. 1989; cited from earlier work
HSV-2 [5] = details: Lewandowski et al. 1989; cited from earlier work; remark: listed apart in the source
uninfected cells = details: Lewandowski et al. 1989; cited from earlier work
mice = details: oral, at the dosage employed; cited from earlier work
thymidine phosphorylase = details: cited from earlier work

## O=c1ncc(I)cn1[C@H]1C[C@H](O)[C@@H](CO)O1 [IPdR, 1-(2-deoxy-β-D-ribofuranosyl)-5-(iodo)-2-pyrimidinone]
IPdR oxidase [1]
  Specific activity of the conversion of IPdR to IUdR: 2-7 n mole/mg protein/min
IPdR oxidase [2]
  rate of IUdR synthesis by partially purified enzyme: 3.8 μmoles per minute per milligram of protein
[3]; pH 7.5
  Km: 150 µM
[3]; pH 9.5
  Km: 87 µM
Aldehyde oxidase
  relative Vmax: the same
Xanthine oxidase
  conversion of IPdR to IUdR by xanthine oxidase: failed to convert IPdR to IUdR
Alcohol dehydrogenase
  conversion of IPdR by alcohol dehydrogenase: not detected
Sarcosine oxidase
  IPdR oxidase activity of sarcosine oxidase: no IPdR oxidase activity
Liver and tumor tissue
  percent thymidine replacement in tumor: increasing tumor incorporation; also recorded: increasing percent replacement
Liver and tumor tissue; normal liver
  percent incorporation in liver: negligible; also recorded: very small percent incorporation
HSV-1
  activity against HSV-1 in cell culture: potent activity
HSV-2 [4]
  activity against HSV-2 in cell culture: potent activity
HSV-2 [5]
  activity against HSV-2 in mice: potent activity
Uninfected cells
  toxicity to uninfected cells: not toxic
mice
  toxicity to mice: not toxic
Thymidine phosphorylase
  substrate for thymidine phosphorylase: not substrates for thymidine phosphorylase
